Assay: behavior of agents D in water and in ethanol/water solution 40/60 v/v
Type: physicochemical
Description: Different compounds D are introduced into ajar containing either water (on the left in the Figures) or an ethanol/water solution in a ratio of 40/60 v/v (right jar in the Figures).

Substance	solubilization rate in water versus water/ethanol mixture	solubility in water and in ethanol/water
hydroxypropyl methyl cellulose [hypromellose]	higher in water than in the water/ethanol mixture	
guar gum		soluble in water but not in the water/ethanol mixture
